Reference: ChEMBL document CHEMBL1201862, “PubChem BioAssay data set” (2004)
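Cells were grown in 96-well plates and exposed to each compound for 48 hours at five concentrations; endpoints were interpolated linearly between bracketing concentrations, or set to the highest concentration if not reached. Abbreviation: GI50, concentration required for 50% inhibition of growth.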 Activity calls are given as the source filed them. Cut-off read from the data, not from the text of the source: active = GI50 up to about 1.1 µM and inactive = higher.

Experiments:
Experiment in all cases: DTP human tumour cell line panel, 48 h
ACHN = system: ACHN
KM12 = system: KM12
MDA-MB-231 = system: MDA-MB-231
SR = system: SR
HT-29 = system: HT-29
MDA-MB-435 = system: MDA-MB-435
RPMI-8226 = system: RPMI-8226
COLO 205 = system: COLO 205
UACC-257 = system: UACC-257
SK-MEL-28 = system: SK-MEL-28
MDA-N = system: MDA-N
786-0 = system: 786-0
EKVX = system: EKVX
SF-268 = system: SF-268
OVCAR-5 = system: OVCAR-5
A498 = system: A498
SK-MEL-5 = system: SK-MEL-5
HL-60 = system: HL-60
SF-539 = system: SF-539

Measured: GI50

S=C(Nc1c2c(nc3ccccc13)CCCC2)Nc1c2c(nc3ccccc13)CCCC2
inactive: ACHN > 100 µM | KM12 > 100 µM | MDA-MB-231 > 100 µM | SR > 100 µM | HT-29 > 100 µM | MDA-MB-435 > 100 µM | RPMI-8226 > 100 µM | COLO 205 > 100 µM | UACC-257 > 100 µM | SK-MEL-28 > 100 µM | MDA-N > 100 µM | 786-0 > 100 µM | EKVX > 100 µM | SF-268 > 100 µM | OVCAR-5 > 100 µM | A498 > 100 µM | SK-MEL-5 > 100 µM

CCOC(=O)c1cc2ncccc2c2ccccc12
inactive: ACHN > 100 µM | KM12 > 100 µM | MDA-MB-231 > 100 µM | SR > 100 µM | HT-29 > 100 µM | MDA-MB-435 > 100 µM | RPMI-8226 > 100 µM | HL-60 > 100 µM | COLO 205 > 100 µM | UACC-257 > 100 µM | SK-MEL-28 > 100 µM | MDA-N > 100 µM | 786-0 > 100 µM | EKVX > 100 µM | SF-268 > 100 µM | OVCAR-5 > 100 µM | SK-MEL-5 > 100 µM

CNc1nc(N)nc(Nc2ccc(I)cc2)c1N=O
inactive: ACHN > 100 µM | KM12 > 100 µM | MDA-MB-231 > 100 µM | SR > 100 µM | HT-29 24 µM | SF-539 > 100 µM | MDA-MB-435 > 100 µM | RPMI-8226 > 100 µM | HL-60 62.4 µM | COLO 205 36.4 µM | UACC-257 85.3 µM | SK-MEL-28 > 100 µM | MDA-N > 100 µM | 786-0 > 100 µM | EKVX > 100 µM | SF-268 > 100 µM | OVCAR-5 > 100 µM | SK-MEL-5 96.2 µM

Clc1ccc(OCc2nnc(COc3ccc(OCc4nnc(COc5ccc(Cl)cc5Cl)o4)c(Cl)c3)o2)c(Cl)c1
inactive: ACHN 40.6 µM | KM12 45.7 µM | MDA-MB-231 21.7 µM | SR 20.9 µM | HT-29 27.4 µM | MDA-MB-435 42.7 µM | RPMI-8226 17.3 µM | HL-60 23.1 µM | COLO 205 24.4 µM | UACC-257 > 100 µM | SK-MEL-28 46.5 µM | MDA-N 47.3 µM | 786-0 30.8 µM | EKVX 13.6 µM | SF-268 23.5 µM | OVCAR-5 36.2 µM | A498 48.3 µM | SK-MEL-5 41.1 µM

COc1ccc(C2SC(=N)Nc3c2c(C)nn3C(=O)c2ccncc2)cc1OC (centres undefined)
inactive: ACHN > 10 µM | KM12 > 10 µM | MDA-MB-231 > 10 µM | SR > 10 µM | HT-29 > 10 µM | SF-539 > 10 µM | MDA-MB-435 > 10 µM | RPMI-8226 > 10 µM | HL-60 > 10 µM | COLO 205 > 10 µM | UACC-257 > 10 µM | SK-MEL-28 > 10 µM | MDA-N > 10 µM | 786-0 > 10 µM | EKVX > 10 µM | SF-268 > 10 µM | OVCAR-5 > 10 µM | SK-MEL-5 > 10 µM

O=C1OCN(c2ccccc2)C12CCN(Cc1ccccc1)CC2
inactive: ACHN 49.2 µM | KM12 23.7 µM | MDA-MB-231 21.8 µM | SR 34.4 µM | HT-29 16.4 µM | SF-539 20.8 µM | MDA-MB-435 17.1 µM | RPMI-8226 23.7 µM | HL-60 27.8 µM | COLO 205 18.8 µM | UACC-257 16.7 µM | SK-MEL-28 19.3 µM | MDA-N 23.6 µM | 786-0 26.8 µM | EKVX > 100 µM | SF-268 43 µM | OVCAR-5 > 100 µM | SK-MEL-5 19.5 µM

Cc1cc(S(=O)(=O)Nc2nc3ccccc3n2-c2ccccc2)c(S)cc1Cl
inactive: ACHN > 100 µM | KM12 > 100 µM | MDA-MB-231 > 100 µM | SR 69.7 µM | SF-539 > 100 µM | MDA-MB-435 > 100 µM | RPMI-8226 > 100 µM | HL-60 > 100 µM | COLO 205 > 100 µM | UACC-257 > 100 µM | SK-MEL-28 > 100 µM | MDA-N 87.5 µM | 786-0 > 100 µM | EKVX > 100 µM | SF-268 > 100 µM | OVCAR-5 > 100 µM | SK-MEL-5 50.6 µM

N#C/C(=C\c1cccc(Br)c1)c1nc2ccccc2c(=O)[nH]1
inactive: ACHN 54.7 µM | KM12 > 100 µM | MDA-MB-231 41.7 µM | SR 92.9 µM | HT-29 > 100 µM | SF-539 47.9 µM | MDA-MB-435 > 100 µM | RPMI-8226 > 100 µM | HL-60 > 100 µM | COLO 205 > 100 µM | UACC-257 > 100 µM | SK-MEL-28 > 100 µM | MDA-N > 100 µM | 786-0 49.4 µM | EKVX > 100 µM | SF-268 > 100 µM | OVCAR-5 > 100 µM | SK-MEL-5 > 100 µM

O=C1C=C2CO[C@H]3OC[C@H](O)[C@@H]1[C@@H]23
inactive: ACHN > 100 µM | KM12 > 100 µM | MDA-MB-231 73.3 µM | SR 22.6 µM | HT-29 > 100 µM | MDA-MB-435 30.9 µM | RPMI-8226 20.4 µM | HL-60 23.6 µM | COLO 205 16.4 µM | UACC-257 29.8 µM | SK-MEL-28 33.6 µM | MDA-N 35.2 µM | 786-0 35 µM | EKVX > 100 µM | SF-268 36.2 µM | OVCAR-5 73.5 µM | A498 > 100 µM | SK-MEL-5 > 100 µM

COC1CC(n2ccc(=O)[nH]c2=O)OC1CO (centres undefined)
inactive: ACHN > 100 µM | KM12 > 100 µM | MDA-MB-231 > 100 µM | SR > 100 µM | HT-29 > 100 µM | SF-539 > 100 µM | MDA-MB-435 > 100 µM | COLO 205 > 100 µM | UACC-257 > 100 µM | SK-MEL-28 > 100 µM | MDA-N > 100 µM | 786-0 > 100 µM | EKVX > 100 µM | SF-268 > 100 µM | OVCAR-5 > 100 µM | A498 > 100 µM | SK-MEL-5 > 100 µM

COc1ccc(-c2nnc3n(C)c4ccccc4n3c2=O)cc1
inactive: ACHN 63 µM | KM12 > 100 µM | MDA-MB-231 18.2 µM | SR > 100 µM | HT-29 > 100 µM | SF-539 32.7 µM | MDA-MB-435 > 100 µM | HL-60 > 100 µM | COLO 205 > 100 µM | UACC-257 > 100 µM | SK-MEL-28 > 100 µM | MDA-N > 100 µM | 786-0 37.2 µM | EKVX > 100 µM | SF-268 29.6 µM | OVCAR-5 > 100 µM | A498 > 100 µM | SK-MEL-5 > 100 µM
